Structures are written as SMILES.

From patent publication US20250320213A1, “Nitrogen-Containing Heterocyclic Compounds” (Pfizer Inc., priority 2024, published 2025) come the findings set out here.

The experiment concerns the target T1, STAT6 (Homo sapiens, UniProt P42226).
T1 construct: stably transfected HaCaT keratinocyte cell line, which expresses NanoLuc luciferase reporter gene under the transcriptional control of the STAT6 responsive promoter; endogenous in cells; host or cells: HaCaT keratinocyte reporter cell line (stably transfected with a NanoLuc reporter)
T1 sequence (P42226 1-847): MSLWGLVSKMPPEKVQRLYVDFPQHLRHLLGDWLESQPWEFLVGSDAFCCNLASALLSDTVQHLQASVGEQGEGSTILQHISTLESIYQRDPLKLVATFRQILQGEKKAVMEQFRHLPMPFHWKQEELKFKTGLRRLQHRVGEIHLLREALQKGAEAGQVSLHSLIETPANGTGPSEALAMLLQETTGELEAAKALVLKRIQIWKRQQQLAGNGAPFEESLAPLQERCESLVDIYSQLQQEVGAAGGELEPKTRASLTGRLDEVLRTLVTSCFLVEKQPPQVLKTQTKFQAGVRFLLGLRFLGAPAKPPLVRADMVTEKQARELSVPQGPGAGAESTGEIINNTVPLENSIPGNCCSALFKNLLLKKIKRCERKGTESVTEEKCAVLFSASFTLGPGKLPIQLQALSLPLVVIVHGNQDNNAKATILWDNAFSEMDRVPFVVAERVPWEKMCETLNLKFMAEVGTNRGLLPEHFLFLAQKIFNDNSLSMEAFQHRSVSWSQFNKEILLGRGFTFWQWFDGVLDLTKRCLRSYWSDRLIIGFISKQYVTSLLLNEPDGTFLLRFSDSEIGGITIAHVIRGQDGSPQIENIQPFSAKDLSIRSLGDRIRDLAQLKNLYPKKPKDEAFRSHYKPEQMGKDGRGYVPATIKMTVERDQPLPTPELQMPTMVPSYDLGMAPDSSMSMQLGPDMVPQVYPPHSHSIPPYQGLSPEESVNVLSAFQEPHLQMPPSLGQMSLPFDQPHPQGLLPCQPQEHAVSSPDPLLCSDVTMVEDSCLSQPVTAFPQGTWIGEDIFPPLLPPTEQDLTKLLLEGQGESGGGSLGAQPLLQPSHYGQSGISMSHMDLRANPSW
As to the kind of experiment: STAT6 Reporter Luciferase Assay (IL-13 stimulated HaCaT keratinocyte NanoLuc reporter cells). It counts as cell-based. As to conditions: IL-13 stimulated HaCaT STAT6 NanoLuc reporter cells; read-out: Reporter EC50. The procedure, abridged:
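Cells were plated overnight, washed, exposed to compound for two hours, stimulated with IL-13 (0.12 nM final) for four hours at 37 °C, and then lysed with Nano-Glo substrate for 15 min before luminescence reading.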
What is called EC50 is the concentration needed to bring the measured effect to its halfway point. Consider `CC(C)n1nc(C(=O)NCc2ccc(NC(=O)N3CC(N(C)C)C3)cc2)c2c1[C@@H](C)CN(c1ccc(C(=O)N(C)C)cc1)C2` [Example 746, (S)-N-(4-(3-(dimethylamino)azetidine-1-carboxamido)benzyl)-5-(4-(dimethylcarbamoyl)phenyl)-1-isopropyl-7-methyl-4,5,6,7-tetrahydro-1H-pyrazolo[4,3-c]pyridine-3-carboxamide], for which the EC50 came to 1 nM. With `CC(C)n1nc(C(=O)NCc2ccc(NC(=O)N3CC[C@H](N(C)C)C3)cc2)c2c1[C@@H](C)CN(c1ccc(C(=O)N(C)C)cc1)C2` [Example 747, (S)-N-(4-((S)-3-(dimethylamino)pyrrolidine-1-carboxamido)benzyl)-5-(4-(dimethylcarbamoyl)phenyl)-1-isopropyl-7-methyl-4,5,6,7-tetrahydro-1H-pyrazolo[4,3-c]pyridine-3-carboxamide], the EC50 worked out at 1 nM.

Take `CC(C)n1nc(C(=O)NCc2ccc(NC(=O)N3CC(C)(N(C)C)C3)cc2)c2c1[C@@H](C)CN(c1ccc(C(=O)N(C)C)cc1)C2` [Example 748, (S)-N-(4-(3-(dimethylamino)-3-methylazetidine-1-carboxamido)benzyl)-5-(4-(dimethylcarbamoyl)phenyl)-1-isopropyl-7-methyl-4,5,6,7-tetrahydro-1H-pyrazolo[4,3-c]pyridine-3-carboxamide]: the EC50 stood at 1 nM. Regarding `CC(C)n1nc(C(=O)NCc2ccc(NC(=O)N3CCC4(CCN(C)CC4)CC3)cc2)c2c1[C@@H](C)CN(c1ccc(C(=O)N(C)C)cc1)C2` [Example 749, (S)-N-(4-((5-(4-(dimethylcarbamoyl)phenyl)-1-isopropyl-7-methyl-4,5,6,7-tetrahydro-1H-pyrazolo[4,3-c]pyridine-3-carboxamido)methyl)phenyl)-9-methyl-3,9-diazaspiro[5.5]undecane-3-carboxamide], the EC50 was 0.4 nM. In the case of `CC(C)n1nc(C(=O)NCc2ccc(NC(=O)N3CC[C@@H](N(C)C)C3)cc2)c2c1[C@@H](C)CN(c1ccc(C(=O)N(C)C)cc1)C2` [Example 750, (S)-N-(4-((R)-3-(dimethylamino)pyrrolidine-1-carboxamido)benzyl)-5-(4-(dimethylcarbamoyl)phenyl)-1-isopropyl-7-methyl-4,5,6,7-tetrahydro-1H-pyrazolo[4,3-c]pyridine-3-carboxamide], the EC50 came to 1 nM. For `CC(C)n1nc(C(=O)NCc2ccc(NC(=O)N3CC4(CN(C)C4)C3)cc2)c2c1[C@@H](C)CN(c1ccc(C(=O)N(C)C)cc1)C2` [Example 751, (S)-5-(4-(dimethylcarbamoyl)phenyl)-1-isopropyl-7-methyl-N-(4-(6-methyl-2,6-diazaspiro[3.3]heptane-2-carboxamido)benzyl)-4,5,6,7-tetrahydro-1H-pyrazolo[4,3-c]pyridine-3-carboxamide] the value was 9 nM. As for `CC(C)n1nc(C(=O)NCc2ccc(NC(=O)N3CCC(C)(N(C)C)C3)cc2)c2c1[C@@H](C)CN(c1ccc(C(=O)N(C)C)cc1)C2` (stereo partly drawn) [Example 752, (7S)-N-(4-(3-(dimethylamino)-3-methylpyrrolidine-1-carboxamido)benzyl)-5-(4-(dimethylcarbamoyl)phenyl)-1-isopropyl-7-methyl-4,5,6,7-tetrahydro-1H-pyrazolo[4,3-c]pyridine-3-carboxamide], the figure is 2 nM. For `CC(C)n1nc(C(=O)NCc2ccc(NC(=O)N3CCC4(CCN(C)C4)CC3)cc2)c2c1[C@@H](C)CN(c1ccc(C(=O)N(C)C)cc1)C2` [Example 753, (S)-N-(4-((5-(4-(dimethylcarbamoyl)phenyl)-1-isopropyl-7-methyl-4,5,6,7-tetrahydro-1H-pyrazolo[4,3-c]pyridine-3-carboxamido)methyl)phenyl)-2-methyl-2,8-diazaspiro[4.5]decane-8-carboxamide] the value was 0.5 nM.
